Assay results taken from US20250243176A1, “(S)-1-(1-ACRYLOYLPIPERIDIN-3-YL)-2-FLUORO-5,6,7,8,9,10-HEXAHYDROCYCLO HEPTA[B]INDOLE-4-CARBOXAMIDE, AND RELATED CRYSTALLINE FORMS, COMPOSITIONS, AND METHODS THEREOF” (GB005, Inc., priority 2021, published 2025).
≈ marks a conversion by molar mass, not a printed value.

Tests used:
[1] = pKa determination, Sirius T3 titrator (Form III); format: physicochemical; conditions: titrations at 25° C., acidic and basic sites
Method: In each of the following studies (Examples 6-10), the starting material was Compound 1 (free form, not salt) Form III. The material was a light yellow solid, comprising non-hygroscopic irregular shaped crystal with aggregation. The same analytical methods as described in Example 1 were employed.
pKa was assessed using Sirius T3 titrator. The acidic and basic sites were very weak, and undetectable by Sirius T3.

349 kinases = experiment: Kinome scan, panel; format: biochemical; conditions: kinome scan against 349 kinases
From the text: (§1) (S)-1-(1-acryloylpiperidin-3-yl)-2-fluoro-5,6,7,8,9,10-hexahydrocyclohepta[b]indole-4-carboxamide, hereinafter referred to as “Compound 1”, is an orally available, selective, potent inhibitor of Bruton's tyrosine kinase (BTK), thereby providing potential treatment options in BTK-driven diseases. The potency of Compound 1 for BTK inhibition is in the nM range in both cell-free enzymatic and whole blood functional assays.

TXK = target: T1, TXK (Homo sapiens, UniProt P42681); experiment: Kinome scan, TXK; format: biochemical
T1 sequence (P42681 1-527): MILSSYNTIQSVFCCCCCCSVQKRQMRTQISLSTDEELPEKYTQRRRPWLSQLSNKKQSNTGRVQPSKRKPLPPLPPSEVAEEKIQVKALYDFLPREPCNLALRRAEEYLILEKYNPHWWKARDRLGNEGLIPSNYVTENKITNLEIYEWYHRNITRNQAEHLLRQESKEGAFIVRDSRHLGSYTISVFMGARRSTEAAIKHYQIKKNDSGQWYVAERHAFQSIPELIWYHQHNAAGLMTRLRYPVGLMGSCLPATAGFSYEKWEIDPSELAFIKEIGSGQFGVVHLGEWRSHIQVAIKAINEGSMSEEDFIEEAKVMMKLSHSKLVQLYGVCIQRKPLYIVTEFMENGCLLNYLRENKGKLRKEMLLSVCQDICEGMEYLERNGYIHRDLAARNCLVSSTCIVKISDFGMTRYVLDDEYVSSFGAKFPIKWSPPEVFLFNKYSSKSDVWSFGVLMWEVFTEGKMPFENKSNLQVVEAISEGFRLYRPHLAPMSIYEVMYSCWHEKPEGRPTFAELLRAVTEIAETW
From the text: as §1

[2] = Stability testing of formulations and Compound 1 alone (impurities, HPLC); format: physicochemical; conditions: 40° C.
Method: Both gels were prepared using Titanium Dioxide, Iron Oxide, Red and FD&C Blue #1 as colorants. One dried swatch of gel 004007 was added to the gel 1 samples and one dried swatch of 004013 was added to gel 2.
The samples were stored in 6 mL amber glass vials at: room temperature, 40° C., 50° C. and 5° C. for up 8 weeks. Control samples (Compound 1 alone) were analyzed in parallel with the study samples and control peaks were subtracted from the total impurities.

[3] = Solubility testing in aqueous media at various pH (Form III); format: physicochemical; conditions: thermodynamic from solid
Method: 0.833 mL concentrated hydrochloric acid was diluted to 100 mL with water (pH=1.0).
Added appropriate amount of water to 0.1N HCl, adjust the pH to 1.2.
KH2PO4 (1360.0 mg) and NaOH (310.0 mg) are mixed in a 200 mL volumetric flask. Water was added to dissolve the solid and dilute to the volume. The flask was shaken to achieve good mixing. (pH=7.42).
Solubility was measured in pH 1.0 water, pH 1.2 buffer and pH 7.4 buffer at room temperature and 37° C. About 10-15 mg of sample was weighed into sample vials and then 2.0/3.0 mL of 0.1 N HCl solution, pH 1.2 buffer and pH 7.4 buffer media, and water were added, respectively. Samples were run in duplicate for each medium. The suspensions were shaken at room temperature or 37° C. Residual solid was collected for XRPD analysis, though no form change occurred during testing. In all instances, very low solubility was observed.

[4] = pH 7.4 buffer (KH2PO4/NaOH), aqueous buffer, pH 7.4 Buffer, 37° C.
[5] = pH 7.4 buffer (KH2PO4/NaOH), aqueous buffer, pH 7.4 Buffer, RT
[6] = simulated gastric fluid, pH 1.0 (0.1N HCl), RT
[7] = simulated gastric fluid, pH 1.2 Buffer, 37° C.

Structure (SMILES): C=CC(=O)N1CCC[C@@H](c2c(F)cc(C(N)=O)c3[nH]c4c(c23)CCCCC4)C1 [Compound 1, (S)-1-(1-acryloylpiperidin-3-yl)-2-fluoro-5,6,7,8,9,10-hexahydrocyclohepta[b]indole-4-carboxamide]
- pKa [1]: undetectable
- kinase selectivity (349 kinases): high kinase selectivity
- inhibition at 1 µM (TXK): > 50%
- Compound 1 Related Impurities, RRT 0.73 ([2]; T = 0): 0.05 % adjusted area
- Compound 1 Related Impurities, RRT 0.79 ([2]; T = 0): <LOQ
- Compound 1 Related Impurities, RRT 0.84 ([2]; T = 0): 0.07 % adjusted area
- Compound 1 Related Impurities, RRT 0.91 ([2]; T = 0): 0.10 % adjusted area
- Compound 1 Related Impurities, RRT 0.93 ([2]; T = 0): 0.06 % adjusted area
- Compound 1 Related Impurities, RRT 1.08 ([2]; T = 0): 0.07 % adjusted area
- Compound 1 Related Impurities, RRT 1.13 ([2]; T = 0): 0.36 % adjusted area
- Compound 1 Related Impurities, Total ([2]; T = 0): 0.71 % adjusted area
- Compound 1 Related Impurities, RRT 0.73 ([2]; T = 3 weeks): 0.06 % adjusted area
- Compound 1 Related Impurities, RRT 0.79 ([2]; T = 3 weeks): <LOQ
- Compound 1 Related Impurities, RRT 0.84 ([2]; T = 3 weeks): 0.05 % adjusted area
- Compound 1 Related Impurities, RRT 0.91 ([2]; T = 3 weeks): 0.07 % adjusted area
- Compound 1 Related Impurities, RRT 0.93 ([2]; T = 3 weeks): 0.07 % adjusted area
- Compound 1 Related Impurities, RRT 1.08 ([2]; T = 3 weeks): 0.07 % adjusted area
- Compound 1 Related Impurities, RRT 1.13 ([2]; T = 3 weeks): 0.30 % adjusted area
- Compound 1 Related Impurities, Total ([2]; T = 3 weeks): 0.62 % adjusted area
- Compound 1 Related Impurities, RRT 0.47 ([2]; T = 8 weeks): 0.07 % adjusted area
- Compound 1 Related Impurities, RRT 0.73 ([2]; T = 8 weeks): 0.05 % adjusted area
- Compound 1 Related Impurities, RRT 0.79 ([2]; T = 8 weeks): <LOQ
- Compound 1 Related Impurities, RRT 0.84 ([2]; T = 8 weeks): 0.06 % adjusted area
- Compound 1 Related Impurities, RRT 0.91 ([2]; T = 8 weeks): 0.08 % adjusted area
- Compound 1 Related Impurities, RRT 0.93 ([2]; T = 8 weeks): 0.05 % adjusted area
- Compound 1 Related Impurities, RRT 1.04 ([2]; T = 8 weeks): 0.12 % adjusted area
- Compound 1 Related Impurities, RRT 1.08 ([2]; T = 8 weeks): 0.06 % adjusted area
- Compound 1 Related Impurities, RRT 1.13 ([2]; T = 8 weeks): 0.32 % adjusted area
- Compound 1 Related Impurities, Total ([2]; T = 8 weeks): 0.81 % adjusted area
- solubility at 4 h [3, 4]: 0.8 µg/mL (≈ 2.09 µM)
- solubility at 24 h [3, 4]: 0.8 µg/mL (≈ 2.09 µM)
- solubility at 24 h [3, 5]: 0.8 µg/mL (≈ 2.09 µM)
- solubility at 48 h [3, 5]: 1.7 µg/mL (≈ 4.43 µM)
- solubility at 4 h [3, 6]: 0.7 µg/mL (≈ 1.83 µM)
- solubility at 24 h [3, 6]: 0.8 µg/mL (≈ 2.09 µM)
- solubility at 48 h [3, 6]: 1.6 µg/mL (≈ 4.17 µM)
- solubility at 4 h [3, 7]: 0.9 µg/mL (≈ 2.35 µM)
- solubility at 24 h [3, 7]: 0.9 µg/mL (≈ 2.35 µM)
- solubility at 4 h ([3]; Water (pH 5.0), 37° C.): 0.6 µg/mL (≈ 1.56 µM)
- solubility at 24 h ([3]; Water (pH 5.0), 37° C.): 0.7 µg/mL (≈ 1.83 µM)
